The results in this text go back to patent EP4206196A1, “PYRIMIDINE SUBSTITUTED DERIVATIVES AS TYK2 INHIBITORS” (Almirall S.A., priority 2021, dated 2023).

Assay [1] relates to STAT1/3 through TYK2/JAK1. Nature of the assay: IFNa induced STAT phosphorylation in HEK293 cells (SIE-bla reporter gene). It counts as cell-based. To be noted: Homo sapiens, HEK293; HEK293T-sie-bla cells, IFNa at EC80, 4 hours; read-out: Inhibition of IFNa induced STAT phosphorylation HEK293 cells IC50. The essentials:
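Read-out was FRET from a β-lactamase reporter under a SIE promoter in HEK293T cells, with substrate added after a 4 h, 37°C co-incubation of compound and EC80 IFNa and left overnight in the dark. Compounds ran as 10-point 1/5 dilutions at 0.1% final DMSO; four-parameter log fit gave IC50.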
Background: A reporter such as luciferase makes a cellular process visible.

The target in assay [2] is T1, TYK2 (JH2domain-pseudokinase) (Homo sapiens, UniProt P29597).
T1 construct: TYK2 (JH2domain-pseudokinase)-tagged T7 phage strains were prepared in an E. coli host derived from the BL21 strain; made in house; host or cells: E. coli BL21-derived host (T7 phage) or HEK-293 cells
T1 sequence (P29597 589-875 limits assumed): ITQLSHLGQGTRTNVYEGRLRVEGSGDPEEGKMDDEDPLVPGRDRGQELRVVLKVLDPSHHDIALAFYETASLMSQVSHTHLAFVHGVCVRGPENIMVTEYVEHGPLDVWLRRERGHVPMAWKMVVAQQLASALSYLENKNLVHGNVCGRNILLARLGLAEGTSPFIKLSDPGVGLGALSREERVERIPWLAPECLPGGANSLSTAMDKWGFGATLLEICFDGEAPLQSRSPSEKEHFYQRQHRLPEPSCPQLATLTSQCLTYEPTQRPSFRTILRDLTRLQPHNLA
Nature of the assay: TYK2 JH2 domain binding assay (KINOMEscan). Put shortly: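 Kd values come from nonlinear least-squares fits of 11-point 3-fold dilutions (mostly 30,000 nM top, lowered when Kd fell below 0.5 nM). Test compound competed with bead-bound biotinylated ligand for qPCR-tagged TYK2 pseudokinase (JH2) domain, shaken 1 h at room temperature, with about 1% final DMSO.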

Regarding `Cc1cc(Nc2cc(Nc3ccc(Br)cc3N(C)S(C)(=O)=O)ncn2)nc(C)n1` [Example 67, N-[5-bromo-2-[[6-[(2,6-dimethylpyrimidin-4-yl)amino]pyrimidin-4-yl]amino]phenyl]-N-methyl-methanesulfonamide], the half-inhibitory concentration (IC50) in assay [1] lay in the range of 10 to 100 nM. Further, the Kd in assay [2] is below 0.2 nM.

For the molecule `Cc1ccc(Nc2cc(Nc3cc(C)nc(C)n3)ncn2)c(N(C)S(C)(=O)=O)c1` [Example 69, N-[2-[[6-[(2,6-dimethylpyrimidin-4-yl)amino]pyrimidin-4-yl]amino]-5-methyl-phenyl]-N-methyl-methanesulfonamide], the IC50 in assay [1] fell in the range of 10 to 100 nM. Besides, the Kd in assay [2] is below 0.2 nM.

In the case of `Cc1cc(Nc2cc(Nc3ccccc3N(C)S(=O)(=O)C(F)(F)F)ncn2)nc(C)n1` [Example 71, N-[2-[[6-[(2,6-dimethylpyrimidin-4-yl)amino]pyrimidin-4-yl]amino]phenyl]-1,1,1-trifluoro-N-methyl-methanesulfonamide], the IC50 in assay [1] was 10 to 100 nM. In assay [2], this molecule showed a Kd below 0.2 nM.

On to `Cc1cc(Nc2cc(Nc3ccccc3C(C)S(C)(=O)=O)ncn2)nc(C)n1` (stereo not shown) [Example 72, N4-(2,6-dimethylpyrimidin-4-yl)-N6-[2-(1-methylsulfonylethyl)phenyl]pyrimidine-4,6-diamine], for which the IC50 in assay [1] was 100 to 1000 nM. For the same molecule, the Kd in assay [2] lay in the range of 1 to 10 nM.

`Cc1cc(Nc2cc(Nc3ccccc3S(=O)(=O)N3CCCCC3)ncn2)nc(C)n1` [Example 73, N6-(2,6-dimethylpyrimidin-4-yl)-N4-[2-(1-piperidylsulfonyl)phenyl]pyrimidine-4,6-diamine]: in assay [1], the IC50 is above 1000 nM. The Kd in assay [2] was above 10 nM.

As to `Cc1cc(Nc2cc(Nc3cc(F)ccc3N(C)S(C)(=O)=O)ncn2)nc(C)n1` [Example 75, N-[2-[[6-[(2,6-dimethylpyrimidin-4-yl)amino]pyrimidin-4-yl]amino]-4-fluorophenyl]-N-methylmethanesulfonamide], in assay [1], the IC50 was in the range of 10 to 100 nM. In assay [2], this molecule came in with an equilibrium dissociation constant (Kd) below 0.2 nM.

As to `Cc1cc(Nc2cc(Nc3cccc(F)c3N(C)S(C)(=O)=O)ncn2)nc(C)n1` [Example 76, N-[2-[[6-[(2,6-dimethylpyrimidin-4-yl)amino]pyrimidin-4-yl]amino]-6-fluorophenyl]-N-methylmethanesulfonamide], the IC50 in assay [1] fell in the range of 10 to 100 nM. The dissociation constant (Kd) in assay [2] was below 0.2 nM.

On to `Cc1cc(Nc2cc(Nc3ccc(C(=O)N(C)C)cc3N(C)S(C)(=O)=O)ncn2)nc(C)n1` [Example 77, 4-[[6-[(2,6-dimethylpyrimidin-4-yl)amino]pyrimidin-4-yl]amino]-N,N-dimethyl-3-[methyl(methylsulfonyl)amino]benzamide], for which the half-inhibitory concentration (IC50) in assay [1] fell in the range of 10 to 100 nM. The molecule further came in with a Kd in assay [2] below 0.2 nM.

In the case of `COc1cc(C(=O)N2CCCC2)ccc1Nc1cc(Nc2cc(C)nc(C)n2)ncn1` [Example 78, [4-[[6-[(2,6-dimethylpyrimidin-4-yl)amino]pyrimidin-4-yl]amino]-3-methoxy-phenyl]-pyrrolidin-1-yl-methanone], in assay [1], the IC50 is above 1000 nM. Also, in assay [2], the Kd lay within 1 to 10 nM.

Take `COc1cc(-c2ncc(F)cn2)ccc1Nc1cc(Nc2cc(C)nc(C)n2)ncn1` [Example 81, N4-(2,6-dimethylpyrimidin-4-yl)-N6-[4-(5-fluoropyrimidin-2-yl)-2-methoxyphenyl]pyrimidine-4,6-diamine]: in assay [1], the IC50 was above 1000 nM. The same molecule came in with a Kd in assay [2] above 10 nM.

`COc1c(Nc2cc(Nc3cc(C)nc(C)n3)ncn2)ccc(-c2ncn(C)n2)c1C` [Example 83, N6-(2,6-dimethylpyrimidin-4-yl)-N4-[2-methoxy-3-methyl-4-(1-methyl-1,2,4-triazol-3-yl)phenyl]pyrimidine-4,6-diamine]: in assay [1], the concentration for half-maximal inhibition (IC50) is above 1000 nM. Also, the Kd in assay [2] fell in the range of 1 to 10 nM.

For `COc1c(Nc2cc(Nc3cc(C)nc(C)n3)ncn2)ccc(-c2cnn(C)c2C)c1C` [Example 84, N4-[4-(1,5-dimethylpyrazol-4-yl)-2-methoxy-3-methyl-phenyl]-N6-(2,6-dimethylpyrimidin-4-yl)pyrimidine-4,6-diamine], the half-inhibitory concentration (IC50) in assay [1] fell in the range of 10 to 100 nM. The Kd in assay [2] was below 0.2 nM.

`COc1cc(-c2ncn(C)n2)ccc1Nc1cc(Nc2cc(C)nc(C)n2)ncn1` [Example 85, N6-(2,6-dimethylpyrimidin-4-yl)-N4-[2-methoxy-4-(1-methyl-1,2,4-triazol-3-yl)phenyl]pyrimidine-4,6-diamine]: the IC50 in assay [1] was 10 to 100 nM. In assay [2], this molecule came in with a Kd of 1 to 10 nM.

As for `Cc1cc(Nc2cc(Nc3ncc(-c4cc(C(F)(F)F)nn4C)cc3N(C)S(C)(=O)=O)ncn2)nc(C)n1` [Example 87, N-[2-[[6-[(2,6-dimethylpyrimidin-4-yl)amino]pyrimidin-4-yl]amino]-5-[2-methyl-5-(trifluoromethyl)pyrazol-3-yl]-3-pyridyl]-N-methyl-methanesulfonamide], in assay [1], the half-inhibitory concentration (IC50) was above 1000 nM. In addition, the Kd in assay [2] lay within 0.2 to 1 nM.

Regarding `Cc1cc(Nc2cc(Nc3ncc(-c4c(C)nn(C)c4C)cc3N(C)S(C)(=O)=O)ncn2)nc(C)n1` [Example 88, N-[2-[[6-[(2,6-dimethylpyrimidin-4-yl)amino]pyrimidin-4-yl]amino]-5-(1,3,5-trimethylpyrazol-4-yl)-3-pyridyl]-N-methyl-methanesulfonamide], in assay [1], the IC50 is 10 to 100 nM. This molecule also yielded a Kd in assay [2] below 0.2 nM.

`Cc1cc(Nc2cc(Nc3ccc(-c4cn[nH]c4C)cc3N(C)S(C)(=O)=O)ncn2)nc(C)n1` [Example 89, N-[2-[[6-[(2,6-dimethylpyrimidin-4-yl)amino]pyrimidin-4-yl]amino]-5-(5-methyl-1H-pyrazol-4-yl)phenyl]-N-methyl-methanesulfonamide]: in assay [1], the IC50 is 10 to 100 nM. This molecule returned a Kd in assay [2] below 0.2 nM.

As to `COc1cc(-c2cn(C)cn2)ccc1Nc1cc(Nc2cc(C)nc(C)n2)ncn1` [Example 90, N4-(2,6-dimethylpyrimidin-4-yl)-N6-[2-methoxy-4-(1-methylimidazol-4-yl)phenyl]pyrimidine-4,6-diamine], in assay [1], the 50% inhibitory concentration (IC50) was above 1000 nM. The molecule also showed a Kd in assay [2] of 1 to 10 nM.

Turning to `COc1cc(-c2nccn2C)ccc1Nc1cc(Nc2cc(C)nc(C)n2)ncn1` [Example 91, N4-(2,6-dimethylpyrimidin-4-yl)-N6-[2-methoxy-4-(1-methylimidazol-2-yl)phenyl]pyrimidine-4,6-diamine], the IC50 in assay [1] fell in the range of 100 to 1000 nM. The Kd in assay [2] is 1 to 10 nM.

Regarding `Cc1cc(Nc2cc(Nc3ccc(C4=CCCCO4)cc3N(C)S(C)(=O)=O)ncn2)nc(C)n1` [Example 92, N-[5-(3,4-dihydro-2H-pyran-6-yl)-2-[[6-[(2,6-dimethylpyrimidin-4-yl)amino]pyrimidin-4-yl]amino]phenyl]-N-methylmethanesulfonamide], in assay [1], the half-inhibitory concentration (IC50) was below 10 nM. In assay [2], this molecule returned a Kd below 0.2 nM.

For the molecule `COc1cc(-c2noc(C)n2)ccc1Nc1cc(Nc2cc(C)nc(C)n2)ncn1` [Example 93, N6-(2,6-dimethylpyrimidin-4-yl)-N4-[2-methoxy-4-(5-methyl-1,2,4-oxadiazol-3-yl)phenyl]pyrimidine-4,6-diamine], in assay [1], the half-inhibitory concentration (IC50) is above 1000 nM. For the same molecule, the Kd in assay [2] lay in the range of 1 to 10 nM.

Turning to `Cc1cc(Nc2cc(Nc3ccc(C4=CCCOC4)cc3N(C)S(C)(=O)=O)ncn2)nc(C)n1` [Example 94, N-[5-(3,6-dihydro-2H-pyran-5-yl)-2-[[6-[(2,6-dimethylpyrimidin-4-yl)amino]pyrimidin-4-yl]amino]phenyl]-N-methyl-methanesulfonamide], the IC50 in assay [1] is below 10 nM. The molecule also yielded a dissociation constant (Kd) in assay [2] below 0.2 nM.

Consider `Cc1cc(Nc2cc(Nc3ccc(C4=CCOCC4)cc3N(C)S(C)(=O)=O)ncn2)nc(C)n1` [Example 95, N-[5-(3,6-dihydro-2H-pyran-4-yl)-2-[[6-[(2,6-dimethylpyrimidin-4-yl)amino]pyrimidin-4-yl]amino]phenyl]-N-methyl-methanesulfonamide], for which the IC50 in assay [1] was below 10 nM. In addition, in assay [2], the Kd was below 0.2 nM.

On to `Cc1cc(Nc2cc(Nc3c(F)cc(-c4cnn(C)c4C)cc3S(C)(=O)=O)ncn2)nc(C)n1` [Example 96, N4-[4-(1,5-dimethylpyrazol-4-yl)-2-fluoro-6-methylsulfonyl-phenyl]-N6-(2,6-dimethylpyrimidin-4-yl)pyrimidine-4,6-diamine], for which the IC50 in assay [1] fell in the range of 100 to 1000 nM. The Kd in assay [2] is 1 to 10 nM.

Regarding `Cc1cc(Nc2cc(Nc3ccc(-c4nc(C)n(C)n4)cc3N(C)S(C)(=O)=O)ncn2)nc(C)n1` [Example 97, N-[2-[[6-[(2,6-dimethylpyrimidin-4-yl)amino]pyrimidin-4-yl]amino]-5-(1,5-dimethyl-1,2,4-triazol-3-yl)phenyl]-N-methyl-methanesulfonamide], in assay [1], the IC50 fell in the range of 10 to 100 nM. For the same molecule, in assay [2], the Kd is below 0.2 nM.

For `Cc1cc(Nc2cc(Nc3ccc(-c4nc(C)nn4C)cc3N(C)S(C)(=O)=O)ncn2)nc(C)n1` [Example 99, N-[2-[[6-[(2,6-dimethylpyrimidin-4-yl)amino]pyrimidin-4-yl]amino]-5-(2,5-dimethyl-1,2,4-triazol-3-yl)phenyl]-N-methyl-methanesulfonamide], in assay [1], the IC50 was in the range of 10 to 100 nM. Also, the Kd in assay [2] was in the range of 0.2 to 1 nM.

As to `Cc1cc(C)c(N(C)S(C)(=O)=O)c(Nc2cc(Nc3cc(C)ncn3)ncn2)c1` [Example 100, N-[2,4-dimethyl-6-[[6-[(6-methylpyrimidin-4-yl)amino]pyrimidin-4-yl]amino]phenyl]-N-methylmethanesulfonamide], the IC50 in assay [1] was above 1000 nM. In addition, in assay [2], the Kd is above 10 nM.

A word on the IC50: it is the concentration that inhibits the measured activity by half. The term Kd denotes a measure of binding affinity in units of concentration. A high value points to weaker binding.
